Reference: article PMC3348135, “Identification of New Agonists and Antagonists of the Insect Odorant Receptor Co-Receptor Subunit” (PLoS ONE, 2012)
Like-named read-outs stand apart in the source and are kept apart here.

Assays:
[1] = target: T1, Cqui\Orco + Cqui\Or10 (Culex quinquefasciatus, UniProt D5LMR7+Q309I4); experiment: Inhibition of odorant (3-methylindole) activation of Cqui\Orco + Cqui\Or10 in Xenopus oocytes; assay type: cell-based; conditions: for Inhibition of activation of Cqui\Orco+Cqui\Or10 by 3-methylindole: 100 nM 3-methylindole, OLC compound 100 µM
[2] = target: T1, Cqui\Orco + Cqui\Or10; experiment: Activation of Cqui\Orco + Cqui\Or10 in Xenopus oocytes, two-electrode voltage clamp; assay type: cell-based; conditions: 100 µM compound; mean ± SEM, n=3-8; read-out: Response amplitude as percentage of response to 100 µM OLC3, Cqui\Orco + Cqui\Or10
Method: (§1) Oocytes were surgically removed from mature Xenopus laevis frogs. Follicle cells were removed by treatment with Collagenase B (Boehringer Mannhem) for 2 hours at room temperature. Capped cRNA encoding each DmOR subunit was generated using mMessage mMachine kits (Ambion). For heteromeric ORs, 25 ng of cRNA encoding each OR subunit was injected into Stage V-VI Xenopus oocytes. For expression of Orco alone, 50 ng of cRNA was injected. Oocytes were incubated at 18°C in Barth’s saline (in mM: 88 NaCl, 1 KCl, 2.4 NaHCO3, 0.3 CaNO3, 0.41 CaCl2, 0.82 MgSO4, 15 HEPES, pH 7.6, and 150 µg/ml ceftazidime) for 2–5 days prior to electrophysiological recording.
(§2) Odorant and Orco ligand induced currents were recorded under two-electrode voltage clamp in Xenopus laevis oocytes expressing ORs, using an automated parallel electrophysiology system (OpusExpress 6000A; Molecular Devices). Oocytes were perfused with ND96 (in mM: 96 NaCl, 2 KCl, 1 CaCl2, 1 MgCl2, 5 HEPES, pH 7.5). Odorant stock solutions (0.5 or 1 M) and Orco ligand stock solutions (100 mM) were prepared in DMSO and diluted in ND96. Unless otherwise noted, applications were for 60 sec at a flow rate of 1.0 ml/min, with extensive washing in ND96 (9 or 20 min at 4.6 ml/min) between applications. Micropipettes were filled with 3 M KCl and had resistances of 0.2−2.0 MΩ. The holding potential was −70 mV. Current responses, filtered (4-pole, Bessel, low pass) at 20 Hz (−3 db) and sampled at 100 Hz, were captured and stored using OpusXpress 1.1 software (Molecular Devices).
Initial analysis of electrophysiological data was done using Clampfit 9.1 software (Molecular Devices). Curve fitting and statistical analyses were done using Prism 5 (Graphpad). Concentration-response data were fit to the equation: I = Imax/(1+(EC50/X)^n) where I represents the current response at a given concentration of odorant, X; Imax is the maximal response; EC50 is the concentration of agonist yielding a half maximal response; n is the apparent Hill coefficient. Concentration-inhibition data were fit to the equation: I = Imax/(1+(X/IC50)^n) where I represents the current response at a given concentration of inhibitor, X; Imax is the maximal response in the absence of inhibitor; IC50 is the concentration of inhibitor present that still allows a half maximal response from odorant; n is the apparent Hill coefficient. Statistical significance was assessed using a two-tailed unpaired t test, an F test, or a one-way analysis of variance followed by the Bonferroni’s post-test, as appropriate.

[3] = target: T2, Dmel\Orco + Dmel\Or35a (Drosophila melanogaster, UniProt Q9VNB5); experiment: Inhibition of odorant (hexanol) activation of Dmel\Orco + Dmel\Or35a in Xenopus oocytes; assay type: cell-based; conditions: 3 µM hexanol; OLC2 100 µM, OLC15 50 µM, OLC20 200 µM
T2 construct: expressed in transfected cells; host or cells: Xenopus laevis oocytes (cRNA injection, pGEMHE)
T2 sequence (Q9VNB5 1-486): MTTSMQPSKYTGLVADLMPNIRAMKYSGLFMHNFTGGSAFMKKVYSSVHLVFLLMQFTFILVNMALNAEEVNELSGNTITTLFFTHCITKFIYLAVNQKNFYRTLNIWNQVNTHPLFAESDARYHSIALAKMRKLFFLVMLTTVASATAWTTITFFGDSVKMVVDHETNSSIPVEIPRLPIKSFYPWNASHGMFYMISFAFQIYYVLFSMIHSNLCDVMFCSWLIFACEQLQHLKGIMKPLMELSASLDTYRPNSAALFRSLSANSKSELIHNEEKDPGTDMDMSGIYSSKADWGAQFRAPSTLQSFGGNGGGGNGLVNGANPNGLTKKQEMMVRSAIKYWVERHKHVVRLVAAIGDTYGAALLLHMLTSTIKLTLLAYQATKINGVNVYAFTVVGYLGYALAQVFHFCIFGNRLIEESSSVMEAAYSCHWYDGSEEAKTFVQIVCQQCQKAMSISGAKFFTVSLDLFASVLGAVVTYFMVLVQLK
T2 sequence (Q9V3Q2 1-409 partner): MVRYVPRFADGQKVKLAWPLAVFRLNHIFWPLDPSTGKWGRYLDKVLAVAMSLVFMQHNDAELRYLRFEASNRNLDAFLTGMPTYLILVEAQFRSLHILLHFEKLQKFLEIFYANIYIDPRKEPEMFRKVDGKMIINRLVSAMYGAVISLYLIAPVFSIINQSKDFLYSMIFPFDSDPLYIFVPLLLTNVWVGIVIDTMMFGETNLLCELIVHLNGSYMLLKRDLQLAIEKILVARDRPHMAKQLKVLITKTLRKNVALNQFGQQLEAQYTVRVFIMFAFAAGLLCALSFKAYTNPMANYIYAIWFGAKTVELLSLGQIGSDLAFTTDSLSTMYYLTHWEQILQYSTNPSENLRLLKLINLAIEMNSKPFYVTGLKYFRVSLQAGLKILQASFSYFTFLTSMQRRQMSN
Method: as §1, §2
In inhibition assays, oocytes were exposed to 60 sec applications of OLC12 with 9 min washes between applications (Fig. 3 and 4) or 60 sec applications of odorant with 20 min washes between applications (Fig. 5). […]
Initial analysis of electrophysiological data was done using Clampfit 9.1 software (Molecular Devices). […] Statistical significance was assessed using a two-tailed unpaired t test, an F test, or a one-way analysis of variance followed by the Bonferroni’s post-test, as appropriate.

[4] = test system: Cqui\Orco; experiment: Agonist activation of homomeric Cqui\Orco in Xenopus oocytes, two-electrode voltage clamp; assay type: cell-based, Culex quinquefasciatus; conditions: 100 µM compound; mean ± SEM, n=3-8

T1 sequence (D5LMR7 entry or part of it): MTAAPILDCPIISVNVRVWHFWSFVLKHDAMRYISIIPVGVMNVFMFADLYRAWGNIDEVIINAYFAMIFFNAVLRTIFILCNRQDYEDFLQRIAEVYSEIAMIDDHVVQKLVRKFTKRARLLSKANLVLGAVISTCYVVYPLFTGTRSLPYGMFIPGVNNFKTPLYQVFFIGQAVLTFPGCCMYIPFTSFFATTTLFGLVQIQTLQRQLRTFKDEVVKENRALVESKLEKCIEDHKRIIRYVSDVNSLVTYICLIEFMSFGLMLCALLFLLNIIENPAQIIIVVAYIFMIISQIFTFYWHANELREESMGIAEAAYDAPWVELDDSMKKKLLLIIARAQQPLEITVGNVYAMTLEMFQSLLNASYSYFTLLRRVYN
T1 sequence (Q309I4 entry or part of it): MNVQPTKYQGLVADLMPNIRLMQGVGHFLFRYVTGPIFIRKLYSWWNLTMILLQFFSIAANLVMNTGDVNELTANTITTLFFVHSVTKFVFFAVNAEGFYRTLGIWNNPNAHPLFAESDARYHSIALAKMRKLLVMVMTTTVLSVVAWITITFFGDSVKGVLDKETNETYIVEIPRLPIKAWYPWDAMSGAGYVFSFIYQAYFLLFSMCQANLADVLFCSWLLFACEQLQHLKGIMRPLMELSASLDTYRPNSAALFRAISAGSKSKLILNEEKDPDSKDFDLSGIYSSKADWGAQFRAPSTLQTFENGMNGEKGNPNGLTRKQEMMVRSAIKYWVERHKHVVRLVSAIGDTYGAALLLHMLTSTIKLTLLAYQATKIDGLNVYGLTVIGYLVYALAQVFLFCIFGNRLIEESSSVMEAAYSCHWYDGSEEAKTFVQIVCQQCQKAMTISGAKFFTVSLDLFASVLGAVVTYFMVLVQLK

| Compound | Inhibition of activation of Cqui\Orco+Cqui\Or10 by 3-methylindole [1] | Emax at 100 µM [2] [%] | Inhibition of the hexanol response of Dmel\Orco+Dmel\Or35a [3] | Response amplitude as percentage of response to 100 µM OLC3, Cqui\Orco [4] [%] | IC50 ([1]; activated by 10 nM 3-methylindole (EC10), read-out: IC50 for inhibition of responses to 10 nM 3-MI) [nM] | IC50 ([1]; activated by 100 nM 3-methylindole (EC53), read-out: IC50 for inhibition of responses to 100 nM 3-MI) [nM] |
| --- | --- | --- | --- | --- | --- | --- |
| CCc1ccc(NC(=O)CSc2nnc(-c3ccccn3)n2CC)cc1 [OLC2] | inhibited | 0 | did not inhibit | 0 |  |  |
| CCCCc1ccc(NC(=O)CSc2nnc(-c3ccccn3)n2CC)cc1 [OLC15] | inhibited | 0 | substantial inhibition | 0 | 1500 ± 200 | 2000 ± 300 |
